Patent US20230114728A1 (Venatorx Pharmaceuticals, Inc., priority 2019, published 2023)
Converted amounts (≈) assume the structure as drawn. Read-outs that look alike come from different tables or passages of the source.

Legend:
Test in all cases: Broth microdilution MIC in iron-depleted CAMHB (IDM)
Assay type in all cases: cell-based
P. aeruginosa ATCC 27853 = conditions: Pseudomonas aeruginosa
Outline: (§1)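 CLSI broth microdilution in Chelex-treated cation-adjusted Mueller-Hinton broth, refortified with Ca, Mg and 10 μM ZnSO4, pH 7.3. Inoculum 2-8×10^5 CFU/mL; 37 °C for 16-20 h (Pseudomonas) or 20-24 h (Acinetobacter). MIC read visually as lowest concentration without growth.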

[1] = system: P. aeruginosa CDC-0090 producing KPC-5, OXA-50, and PAO; conditions: Pseudomonas aeruginosa, read-out: Minimum Inhibitory Concentration, P. aeruginosa CDC-0090
Outline: as §1

P. aeruginosa ATCC 35151 = conditions: Pseudomonas aeruginosa, ATCC35151; iron-depleted MHB (IDM); hyper-permeable strain; read-out: Minimum Inhibitory Concentration, P. aeruginosa ATCC 35151
Outline: as §1

[2] = system: A. baumannii CDC-0083 producing NDM-1, PER-7, OXA-23, and OXA-69; conditions: Acinetobacter baumannii, read-out: Minimum Inhibitory Concentration, CDC-0083
Outline: as §1

[3] = system: P. aeruginosa CDC-0054 producing VIM-4, OXA-50, and PAO; conditions: Pseudomonas aeruginosa, read-out: Minimum Inhibitory Concentration, P. aeruginosa CDC-0054
Outline: as §1

[4] = system: P. aeruginosa (ΔmexAB-oprM); conditions: Pseudomonas aeruginosa, read-out: Minimum Inhibitory Concentration, P. aeruginosa ΔmexAB-OprM
Outline: as §1

[5] = system: P. aeruginosa CDC-0095 producing OXA-50, and PAO; conditions: Pseudomonas aeruginosa, read-out: Minimum Inhibitory Concentration, P. aeruginosa CDC-0095
Outline: as §1

A. baumannii ATCC 17978 = conditions: Acinetobacter baumannii
Outline: as §1

[6] = system: A. baumannii IL123 (ABΔ3-ARAEcPore); conditions: Acinetobacter baumannii, read-out: Minimum Inhibitory Concentration, IL-2123
Outline: as §1

[7] = ATCC27853, read-out: Minimum Inhibitory Concentration, P. aeruginosa ATCC 27853
[8] = ATCC17978, read-out: Minimum Inhibitory Concentration, ATCC 17978

| SMILES | MIC (P. aeruginosa ATCC 27853; [7]) [µg/mL] | MIC [1] [µg/mL] | MIC (P. aeruginosa ATCC 35151) [µg/mL] | MIC [2] [µg/mL] | MIC [3] [µg/mL] | MIC [4] [µg/mL] | MIC [5] [µg/mL] | MIC (A. baumannii ATCC 17978; [8]) [µg/mL] | MIC [6] [µg/mL] | MIC (P. aeruginosa ATCC 27853; ATCC27853, iron-depleted MHB (IDM), read-out: Minimum Inhibitory Concentration, P. aeruginosa ATCC 27853) [µg/mL] | MIC (A. baumannii ATCC 17978; ATCC17978, A. baumannii ATCC 17978, iron-depleted MHB (IDM), read-out: Minimum Inhibitory Concentration, ATCC 17978) [µg/mL] |
| --- | --- | --- | --- | --- | --- | --- | --- | --- | --- | --- | --- |
| O=C(O)c1c(F)ccc2c1OB(O)[C@@H](NC(=O)C(NC(=O)N1CCN(CCBr)C(=O)C1=O)c1c(F)cc(O)c(O)c1F)C2 (stereo partly drawn) [Example 38, (3R)-3-(2-(4-(2-bromoethyl)-2,3-dioxopiperazine-1-carboxamido)-2-(2,6-difluoro-3,4-dihydroxyphenyl)acetamido)-7-fluoro-2-hydroxy-3,4-dihydro-2H-benzo[e][1,2]oxaborinine-8-carboxylic acid] | 2 to 4 (≈ 2.97 to 5.94 µM) | 2 to 4 (≈ 2.97 to 5.94 µM) | 0.25 (≈ 0.371 µM) | 0.5 to 1 (≈ 0.743 to 1.49 µM) | 8 to 16 (≈ 11.9 to 23.8 µM) | 0.25 (≈ 0.371 µM) | 8 to 16 (≈ 11.9 to 23.8 µM) | 0.25 (≈ 0.371 µM) | 2 to 4 (≈ 2.97 to 5.94 µM) |  |  |
| O=C(O)c1c(F)ccc2c1OB(O)[C@@H](NC(=O)[C@H](NC(=O)N1CCNC1=O)c1c(F)cc(O)c(O)c1Cl)C2 (single isomer, unassigned) [Example 34] | 0.5 to 1 (≈ 0.901 to 1.8 µM) | 0.5 to 1 (≈ 0.901 to 1.8 µM) | 0.25 (≈ 0.451 µM) | 0.5 to 1 (≈ 0.901 to 1.8 µM) | 0.5 to 1 (≈ 0.901 to 1.8 µM) | 0.25 (≈ 0.451 µM) | 32 to 64 (≈ 57.7 to 115 µM) | 0.25 (≈ 0.451 µM) | 2 to 4 (≈ 3.61 to 7.21 µM) |  |  |
| NCCCN1CCN(C(=O)N[C@H](C(=O)N[C@H]2Cc3ccc(F)c(C(=O)O)c3OB2O)c2ccc(O)c(O)c2Cl)C(=O)C1=O (single isomer, unassigned) [Example 28] |  | 2 to 4 (≈ 3.22 to 6.43 µM) | 0.25 (≈ 0.402 µM) | 32 to 64 (≈ 51.5 to 103 µM) | 2 to 4 (≈ 3.22 to 6.43 µM) | 0.5 to 1 (≈ 0.804 to 1.61 µM) | 32 to 64 (≈ 51.5 to 103 µM) |  | 32 to 64 (≈ 51.5 to 103 µM) | 2 to 4 (≈ 3.22 to 6.43 µM) | 0.5 to 1 (≈ 0.804 to 1.61 µM) |
| O=C(NC(C(=O)N[C@H]1Cc2ccc(F)c(C(=O)O)c2OB1O)c1ncc(O)cc1F)c1c(F)cc(O)c(O)c1Cl (stereo partly drawn) [Example 10, (3R)-3-(2-(2-chloro-6-fluoro-3,4-dihydroxybenzamido)-2-(3-fluoro-5-hydroxypyridin-2-yl)acetamido)-7-fluoro-2-hydroxy-3,4-dihydro-2H-benzo[e][1,2]oxaborinine-8-carboxylic acid] | 0.5 to 1 (≈ 0.86 to 1.72 µM) | 0.5 to 1 (≈ 0.86 to 1.72 µM) | 0.25 (≈ 0.43 µM) | 32 to 64 (≈ 55 to 110 µM) | 2 to 4 (≈ 3.44 to 6.88 µM) | 0.5 to 1 (≈ 0.86 to 1.72 µM) | 2 to 4 (≈ 3.44 to 6.88 µM) | 32 to 64 (≈ 55 to 110 µM) | 32 to 64 (≈ 55 to 110 µM) |  |  |
| O=C(Nc1ccc(O)c(O)c1Cl)NC(C(=O)N[C@H]1Cc2ccc(F)c(C(=O)O)c2OB1O)c1ncc(O)cc1F (stereo partly drawn) [Example 9, (3R)-3-(2-(3-(2-chloro-3,4-dihydroxyphenyl)ureido)-2-(3-fluoro-5-hydroxypyridin-2-yl)acetamido)-7-fluoro-2-hydroxy-3,4-dihydro-2H-benzo[e][1,2]oxaborinine-8-carboxylic acid] | 8 to 16 (≈ 13.8 to 27.6 µM) | 32 to 64 (≈ 55.3 to 111 µM) | 0.25 (≈ 0.432 µM) | 32 to 64 (≈ 55.3 to 111 µM) | 32 to 64 (≈ 55.3 to 111 µM) | 0.5 to 1 (≈ 0.864 to 1.73 µM) | 32 to 64 (≈ 55.3 to 111 µM) | 32 to 64 (≈ 55.3 to 111 µM) | 32 to 64 (≈ 55.3 to 111 µM) |  |  |
| O=C(O)c1c(F)ccc2c1OB(O)[C@@H](NC(=O)C(NC(=O)N1CCN(CCF)C(=O)C1=O)c1c(F)cc(O)c(O)c1F)C2 (stereo partly drawn) [Example 37, (3R)-3-(2-(2,6-difluoro-3,4-dihydroxyphenyl)-2-(4-(2-fluoroethyl)-2,3-dioxopiperazine-1-carboxamido)acetamido)-7-fluoro-2-hydroxy-3,4-dihydro-2H-benzo[e][1,2]oxaborinine-8-carboxylic acid] | 2 to 4 (≈ 3.27 to 6.53 µM) | 2 to 4 (≈ 3.27 to 6.53 µM) | 0.25 (≈ 0.408 µM) | 0.5 to 1 (≈ 0.817 to 1.63 µM) | 2 to 4 (≈ 3.27 to 6.53 µM) | 0.25 (≈ 0.408 µM) | 8 to 16 (≈ 13.1 to 26.1 µM) | 0.25 (≈ 0.408 µM) | 2 to 4 (≈ 3.27 to 6.53 µM) |  |  |
| CCN1CCN(C(=O)NC(C(=O)N[C@H]2Cc3ccc(F)c(C(=O)O)c3OB2O)c2c(F)cc(O)c(O)c2F)C(=O)C1=O (stereo partly drawn) [Example 36, (3R)-3-(2-(2,6-difluoro-3,4-dihydroxyphenyl)-2-(4-ethyl-2,3-dioxopiperazine-1-carboxamido)acetamido)-7-fluoro-2-hydroxy-3,4-dihydro-2H-benzo[e][1,2]oxaborinine-8-carboxylic acid] | 0.5 to 1 (≈ 0.841 to 1.68 µM) | 0.5 to 1 (≈ 0.841 to 1.68 µM) | 0.25 (≈ 0.421 µM) | 0.25 (≈ 0.421 µM) | 0.5 to 1 (≈ 0.841 to 1.68 µM) | 0.25 (≈ 0.421 µM) | 8 to 16 (≈ 13.5 to 26.9 µM) | 0.25 (≈ 0.421 µM) | 0.5 to 1 (≈ 0.841 to 1.68 µM) |  |  |
| CS(=O)(=O)N1CCN(C(=O)N[C@@H](C(=O)N[C@H]2Cc3ccc(F)c(C(=O)O)c3OB2O)c2c(F)cc(O)c(O)c2Cl)C1=O (single isomer, unassigned) [Example 35] | 0.5 to 1 (≈ 0.79 to 1.58 µM) | 0.5 to 1 (≈ 0.79 to 1.58 µM) | 0.25 (≈ 0.395 µM) | 0.25 (≈ 0.395 µM) | 0.5 to 1 (≈ 0.79 to 1.58 µM) | 0.25 (≈ 0.395 µM) | 32 to 64 (≈ 50.6 to 101 µM) | 0.25 (≈ 0.395 µM) | 2 to 4 (≈ 3.16 to 6.32 µM) |  |  |
| O=C(O)c1ccc(C(NC(=O)c2ccc(O)c(O)c2Cl)C(=O)N[C@H]2Cc3cccc(C(=O)O)c3OB2O)cc1F (stereo partly drawn) [Example 7, (3R)-3-(2-(4-carboxy-3-fluorophenyl)-2-(2-chloro-3,4-dihydroxybenzamido)acetamido)-2-hydroxy-3,4-dihydro-2H-benzo[e][1,2]oxaborinine-8-carboxylic acid] | 2 to 4 (≈ 3.49 to 6.98 µM) | 0.5 to 1 (≈ 0.873 to 1.75 µM) | 0.25 (≈ 0.437 µM) | 32 to 64 (≈ 55.9 to 112 µM) | 2 to 4 (≈ 3.49 to 6.98 µM) | 0.25 (≈ 0.437 µM) | 8 to 16 (≈ 14 to 27.9 µM) | 2 to 4 (≈ 3.49 to 6.98 µM) | 32 to 64 (≈ 55.9 to 112 µM) |  |  |
